Source: US20050245399A1, “Pyrazole derivatives as herbicidal compositions containing them” (ISHIHARA SANGYO KAISHA, LTD., priority 2004, published 2005)

Tests used:
Format in all cases: in vivo
[1] = tested on: barnyardgrass (Echinochloa crus-galli L.): ECHCG; assay: Test Example 1 pre-emergence herbicidal activity, ECHCG; conditions: visually observed 20th to 23rd day after application
How it was run: (§1)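 Upland soil pot test. Formulated compound (wettable powder or emulsifiable concentrate) in water, 500 L/ha, sprayed one day after sowing before emergence; % control rated by eye on day 20–23.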

[2] = tested on: crabgrass (Digitaria sanguinalis L.): DIGSA; assay: Test Example 1 pre-emergence herbicidal activity, DIGSA; conditions: visually observed 20th to 23rd day after application
How it was run: as §1

[3] = tested on: green foxtail (Setaria viridis L.): SETVI; assay: Test Example 1 pre-emergence herbicidal activity, SETVI; conditions: visually observed 20th to 23rd day after application
How it was run: as §1

[4] = tested on: redroot pigweed (Amaranthus retroflexus L.): AMARE; assay: Test Example 1 pre-emergence herbicidal activity, AMARE; conditions: visually observed 20th to 23rd day after application
How it was run: as §1

[5] = tested on: prickly sida (Sida spinosa L.): SEDSP; assay: Test Example 1 pre-emergence herbicidal activity, SIDSP; conditions: visually observed 20th to 23rd day after application
How it was run: as §1

[6] = tested on: velvetleaf (Abutilon theophrasti): ABUTH; assay: Test Example 1 pre-emergence herbicidal activity, ABUTH; conditions: visually observed 20th to 23rd day after application
How it was run: as §1

[7] = tested on: rice (Oryza sativa L.): ORYSA; assay: Test Example 1 pre-emergence herbicidal activity, ORYSA; conditions: visually observed 20th to 23rd day after application
How it was run: as §1

[8] = tested on: wheat (Triticum aestivum L.): TRZAX; assay: Test Example 1 pre-emergence herbicidal activity, TRZAX; conditions: visually observed 20th to 23rd day after application
How it was run: as §1

[9] = tested on: corn (Zea mays L.): ZEAMX; assay: Test Example 1 pre-emergence herbicidal activity, ZEAMX; conditions: visually observed 20th to 23rd day after application
How it was run: as §1

[10] = tested on: soybean (Glycine max Merr.): GLXMA; assay: Test Example 1 pre-emergence herbicidal activity, GLXMA; conditions: visually observed 20th to 23rd day after application
How it was run: as §1

[11] = tested on: barnyardgrass (Echinochloa crus-galli L.), ECHCG; assay: Test Example 2 post-emergence (foliage treatment) herbicidal activity, ECHCG; conditions: 63 g a.i./ha
How it was run: (§2)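 Leaf stages at treatment differed per species: 1.1-2.1 for ECHCG, 1.0-2.0 for DIGSA, 0.1-1.5 for AMARE and 1.0-2 for ORYSA. Plants grew in pots of upland soil and were sprayed with wettable powder or emulsifiable concentrate in water (500 L/ha) plus spreader at 0.1% (v/v). Visual % control followed on days 20-23.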

[12] = tested on: crabgrass (Digitaria sanguinalis L.), DIGSA; assay: Test Example 2 post-emergence (foliage treatment) herbicidal activity, DIGSA; conditions: 63 g a.i./ha
How it was run: as §2

[13] = tested on: green foxtail (Setaria viridis L.), SETVI; assay: Test Example 2 post-emergence (foliage treatment) herbicidal activity, SETVI; conditions: 63 g a.i./ha
How it was run: (§3)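 Foliar spray of formulated compound (500 L/ha dilution water, 0.1% v/v spreader) onto young potted plants at defined leaf stages. Scored 0-100% by visual inspection 20-23 d post-spray.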

[14] = tested on: redroot pigweed (Amaranthus retroflexus L.), AMARE; assay: Test Example 2 post-emergence (foliage treatment) herbicidal activity, AMARE; conditions: 63 g a.i./ha
How it was run: as §2

[15] = tested on: prickly sida (Sida spinosa L.), SIDSP; assay: Test Example 2 post-emergence (foliage treatment) herbicidal activity, SIDSP; conditions: 63 g a.i./ha
How it was run: as §3

[16] = tested on: velvetleaf (Abutilon theophrasti), ABUTH; assay: Test Example 2 post-emergence (foliage treatment) herbicidal activity, ABUTH; conditions: 63 g a.i./ha
How it was run: as §3

[17] = tested on: rice (Oryza sativa L.), ORYSA; assay: Test Example 2 post-emergence (foliage treatment) herbicidal activity, ORYSA; conditions: 63 g a.i./ha
How it was run: as §2

[18] = tested on: wheat (Triticum aestivum L.), TRZAX; assay: Test Example 2 post-emergence (foliage treatment) herbicidal activity, TRZAX; conditions: 63 g a.i./ha
How it was run: as §3

[19] = tested on: corn (Zea mays L.), ZEAMX; assay: Test Example 2 post-emergence (foliage treatment) herbicidal activity, ZEAMX; conditions: 63 g a.i./ha
How it was run: as §3

[20] = tested on: soybean (Glycine max Merr.), GLXMA; assay: Test Example 2 post-emergence (foliage treatment) herbicidal activity, GLXMA; conditions: 63 g a.i./ha
How it was run: as §3

[21] = tested on: barnyardgrass (Echinochiloa oryzicola: ECHOR); assay: Test Example 3 water application herbicidal activity (paddy), ECHOR; conditions: 63 g a.i./ha, water application under submerged condition at 0.5 leaf stage, visually observed 14th day after application; 0 = untreated control, 100 = complete kill
How it was run: (§4)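 Flooded paddy-soil pots in greenhouse; ECHOR and SCPJO sown, SAGPY tubers planted a day later, compound applied into 3–4 cm water at weeds' 0.5-leaf stage. Rice transplanted at 2-leaf stage, treated day 4 after transplanting. Visual growth control 0–100% at 14 days (weeds) and 21 days (rice) after application.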

[22] = tested on: japanese bulrush (Scirpus juncoides: SCPJO); assay: Test Example 3 water application herbicidal activity (paddy), SCPJO; conditions: 63 g a.i./ha, water application under submerged condition at 0.5 leaf stage, visually observed 14th day after application; 0 = untreated control, 100 = complete kill
How it was run: as §4

[23] = tested on: japanese ribbon wapato (Sagittaria pygmaea: SA GPY); assay: Test Example 3 water application herbicidal activity (paddy), SAGPY; conditions: 63 g a.i./ha, water application under submerged condition, tubers planted, visually observed 14th day after application; 0 = untreated control, 100 = complete kill
How it was run: as §4

[24] = tested on: rice (Oryza sativa L.: ORYSA); assay: Test Example 3 water application herbicidal activity (paddy), transplanted rice ORYSA; conditions: 63 g a.i./ha, water application 4th day after transplantation of 2 leaf stage rice, visually observed 21st day after application; 0 = untreated control, 100 = complete kill
How it was run: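 Rice at 2-leaf stage is transplanted into flooded puddled soil and treated by water application 4 days later, at a predetermined active-ingredient dose. Crop injury is rated visually as growth control (0–100%) 21 days after treatment.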

SMILES | growth controlling degree, ECHCO [11] [%] | growth controlling degree, DIGSP [12] [%] | growth controlling degree, SETVI [13] [%] | growth controlling degree, AMARE [14] [%] | growth controlling degree, SIDSP [15] [%] | growth controlling degree, ABUTH [16] [%] | growth controlling degree, ORYSA [17] [%] | growth controlling degree, TRZAX [18] [%] | growth controlling degree, ZEAMX [19] [%] | growth controlling degree, GLXMA [20] [%] | growth controlling degrees (%) ECHOR [21] [%] | growth controlling degrees (%) SCPJO [22] [%] | growth controlling degrees (%) SAGPY [23] [%] | growth controlling degrees (%) ORYSA [24] [%] | further results
COCCOC(=O)N(C(=O)OCCOC)c1c(OC)c(Cl)cc(F)c1-c1nn(C)c(OC(F)F)c1Cl [Compound 1-54] | 90 | 70 | 80 | 100 | 100 | 100 | 98 | 30 | 50 | 60 | 98 | 30 | 30 | 40 | Pre-emergence Herbicidal Activity ECHCG (growth controlling degree) ([1]; Rate 125 g a.i./ha): 20%; Pre-emergence Herbicidal Activity DIGSP (growth controlling degree) ([2]; Rate 125 g a.i./ha): 100%; Pre-emergence Herbicidal Activity SETVI (growth controlling degree) ([3]; Rate 125 g a.i./ha): 100%; Pre-emergence Herbicidal Activity AMARE (growth controlling degree) ([4]; Rate 125 g a.i./ha): 100%; Pre-emergence Herbicidal Activity SIDSP (growth controlling degree) ([5]; Rate 125 g a.i./ha): 95%; Pre-emergence Herbicidal Activity ABUTH (growth controlling degree) ([6]; Rate 125 g a.i./ha): 80%; Pre-emergence Herbicidal Activity ORYSA (growth controlling degree) ([7]; Rate 125 g a.i./ha): 30%; Pre-emergence Herbicidal Activity TRZAX (growth controlling degree) ([8]; Rate 125 g a.i./ha): 20%; Pre-emergence Herbicidal Activity ZEAMX (growth controlling degree) ([9]; Rate 125 g a.i./ha): 0%; Pre-emergence Herbicidal Activity GLXMA (growth controlling degree) ([10]; Rate 125 g a.i./ha): 10%
C#CCNc1c(OC)c(Cl)cc(F)c1-c1nn(C)c(OC(F)F)c1Cl [Compound 1-53] | 100 | 100 | 100 | 100 | 100 | 100 | 95 | 40 | 100 | 95 | 100 | 100 | 100 | 70 | Pre-emergence Herbicidal Activity ECHCG (growth controlling degree) ([1]; Rate 63 g a.i./ha): 100%; Pre-emergence Herbicidal Activity DIGSP (growth controlling degree) ([2]; Rate 63 g a.i./ha): 100%; Pre-emergence Herbicidal Activity SETVI (growth controlling degree) ([3]; Rate 63 g a.i./ha): 100%; Pre-emergence Herbicidal Activity AMARE (growth controlling degree) ([4]; Rate 63 g a.i./ha): 100%; Pre-emergence Herbicidal Activity SIDSP (growth controlling degree) ([5]; Rate 63 g a.i./ha): 100%; Pre-emergence Herbicidal Activity ABUTH (growth controlling degree) ([6]; Rate 63 g a.i./ha): 100%; Pre-emergence Herbicidal Activity ORYSA (growth controlling degree) ([7]; Rate 63 g a.i./ha): 50%; Pre-emergence Herbicidal Activity TRZAX (growth controlling degree) ([8]; Rate 63 g a.i./ha): 20%; Pre-emergence Herbicidal Activity ZEAMX (growth controlling degree) ([9]; Rate 63 g a.i./ha): 20%; Pre-emergence Herbicidal Activity GLXMA (growth controlling degree) ([10]; Rate 63 g a.i./ha): 30%
